Measured values published in US20100292137A1, “Antibiotics and Methods For Producing Them” (priority 2006, published 2010).
Values after ≈ are worked out from the molar mass of the structure shown. Starred links: 1 amine or outer side, 2 acyl side, 3 side chain; linkers in the order of their positions; H or OH if unused. Positions of bridges follow the written chain, without caps; N, C: chain ends. Non-standard residues stand in square brackets, D forms with d. Residues, ends and D or L forms follow the SMILES beside them. *: point of attachment. X1 = NC1=N[C@@H]([C@H](N[*:1])C(=O)[*:2])C[C@H](O)N1; ΔAla(Z-3-ureido) = NC(=O)N/C=C(\N)C(=O)O; β3hOrn = NCCC[C@H](N)CC(=O)*; Dap = NC[C@H](N)C(=O)O

Legend:
[1] = tested on: E. coli DH1; experiment: microbe, parasite or virus in culture; type: cell-based; settings: Escherichia coli, DH1, read-out: Minimal inhibitory concentrations
[2] = tested on: E. coli strain AS19; experiment: Agar plate MIC on hyperpermeable E. coli AS19; settings: Escherichia coli
Procedure: Escherichia coli strain DH1 was used for cloning and expressing recombinant tlyA, and was grown by standard techniques (Sambrook et al., 1989). The hyperpermeable E. coli strain AS19 (Sekiguchi and Iida, 1967) was additionally used to express tlyA.
Overnight cultures of E. coli DH1 and AS19 strains were diluted 10^5-fold and plated onto agar containing viomycin (US Pharmacopeia), capreomycin, kanamycin or rifampicin (Sigma) with concentrations increasing in two-fold steps. The agar plates were incubated at 37° C.; and after 22 h, MICs were scored as the lowest concentration at which no growth was observed.

[3] = tested on: M. smegmatis; experiment: microbe, parasite or virus in culture; type: cell-based, Mycobacterium smegmatis
[4] = tested on: 70S ribosome (30S, 50S and 70S particles); type: binding, Mycobacterium smegmatis
[5] = tested on: S. coelicolor M145 and derived mutants; type: cell-based, Streptomyces coelicolor
[6] = tested on: S. avermitilis MA4630; type: cell-based, Streptomyces avermitilis
[7] = tested on: M. smegmatis; settings: tlyA mutant P2U; cited from earlier work

Q: For `NC[C@H]1O[C@H](O[C@H]2[C@H](O)[C@@H](O[C@H]3O[C@H](CO)[C@@H](O)[C@H](N)[C@H]3O)[C@H](N)C[C@@H]2N)[C@H](O)[C@@H](O)[C@@H]1O` [kanamycin], which MIC [1] is on record?
A: 4 µg/mL (≈ 8.26 µM)

Q: Which results are given for `CO[C@H]1/C=C/O[C@@]2(C)Oc3c(C)c(O)c4c(O)c(c(/C=N/N5CCN(C)CC5)c(O)c4c3C2=O)NC(=O)/C(C)=C\C=C\[C@H](C)[C@H](O)[C@@H](C)[C@@H](O)[C@@H](C)[C@H](OC(C)=O)[C@@H]1C` [rifampicin]?
A: MIC [1]: 4 µg/mL (≈ 4.86 µM); MIC [2]: 0.1 µg/mL (≈ 0.122 µM)

Q: Which MIC ([3]; Mycolicibacterium smegmatis) does the source give for `NCCC[C@H](N)CC(=O)N[C@H]1CNC(=O)[C@H]([C@H]2C[C@H](O)NC(N)=N2)NC(=O)/C(=C/NC(N)=O)NC(=O)[C@H](CO)NC(=O)[C@H](CO)NC1=O` [viomycin] (β3hOrn-[Dap]SS[ΔAla(Z-3-ureido)][X1]; lactam 1-C) here?
A: 20 to 40 µg/mL (≈ 29.2 to 58.3 µM)

Q: What about the “binding interactions with the ribosome (footprints)” value [4] of the same compound?
A: occur only when the ribosomal subunits are associated into 70S couples

Q: Which results are given for capreomycin?
A: MIC, minimal inhibitory concentration of capreomycin [3]: <10 µg/mL; MIC value [5]: 1 to 5 µg/mL; capreomycin concentration above which the strain is unable to grow [5]: 5 µg/mL; capreomycin concentration at which the strain grew very well [5]: 100 µg/mL; capreomycin concentration at which the strain still grows [5]: 100 µg/mL; capreomycin sensitivity after complementation [5]: regained capreomycin sensitivity; resistance relative to parent M145 [5]: more than 100 fold; binding interactions with the ribosome (footprints) [4]: occur only when the ribosomal subunits are associated into 70S couples; MIC value [6]: 1 to 5 µg/mL

Q: For `NCC[C@H](O)C(=O)N[C@@H]1C[C@H](N)[C@@H](O[C@H]2O[C@H](CN)[C@@H](O)[C@H](O)[C@H]2O)[C@H](O)[C@H]1O[C@H]1O[C@H](CO)[C@@H](O)[C@H](N)[C@H]1O` [amikacin], which susceptibility [7] is on record?
A: susceptible
